Source: patent publication US20140058103A1, “Inhibitors of PI3K-Delta and Methods of Their Use and Manufacture” (Exelixis, Inc., priority 2010, published 2014)

biological target: PI3K delta (Homo sapiens, UniProt O00329); test: Luciferase-coupled chemiluminescence kinase assay (ATP consumption, KinaseGlo); format: biochemical
How it was run: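 ATP consumption measured by KinaseGlo luciferase chemiluminescence after a 2 h reaction at ambient temperature, with ATP at or below the kinase KM. Ten inhibitor concentrations per curve; IC50 from four-parameter nonlinear regression.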

Chain of PI3K delta (O00329 whole entry): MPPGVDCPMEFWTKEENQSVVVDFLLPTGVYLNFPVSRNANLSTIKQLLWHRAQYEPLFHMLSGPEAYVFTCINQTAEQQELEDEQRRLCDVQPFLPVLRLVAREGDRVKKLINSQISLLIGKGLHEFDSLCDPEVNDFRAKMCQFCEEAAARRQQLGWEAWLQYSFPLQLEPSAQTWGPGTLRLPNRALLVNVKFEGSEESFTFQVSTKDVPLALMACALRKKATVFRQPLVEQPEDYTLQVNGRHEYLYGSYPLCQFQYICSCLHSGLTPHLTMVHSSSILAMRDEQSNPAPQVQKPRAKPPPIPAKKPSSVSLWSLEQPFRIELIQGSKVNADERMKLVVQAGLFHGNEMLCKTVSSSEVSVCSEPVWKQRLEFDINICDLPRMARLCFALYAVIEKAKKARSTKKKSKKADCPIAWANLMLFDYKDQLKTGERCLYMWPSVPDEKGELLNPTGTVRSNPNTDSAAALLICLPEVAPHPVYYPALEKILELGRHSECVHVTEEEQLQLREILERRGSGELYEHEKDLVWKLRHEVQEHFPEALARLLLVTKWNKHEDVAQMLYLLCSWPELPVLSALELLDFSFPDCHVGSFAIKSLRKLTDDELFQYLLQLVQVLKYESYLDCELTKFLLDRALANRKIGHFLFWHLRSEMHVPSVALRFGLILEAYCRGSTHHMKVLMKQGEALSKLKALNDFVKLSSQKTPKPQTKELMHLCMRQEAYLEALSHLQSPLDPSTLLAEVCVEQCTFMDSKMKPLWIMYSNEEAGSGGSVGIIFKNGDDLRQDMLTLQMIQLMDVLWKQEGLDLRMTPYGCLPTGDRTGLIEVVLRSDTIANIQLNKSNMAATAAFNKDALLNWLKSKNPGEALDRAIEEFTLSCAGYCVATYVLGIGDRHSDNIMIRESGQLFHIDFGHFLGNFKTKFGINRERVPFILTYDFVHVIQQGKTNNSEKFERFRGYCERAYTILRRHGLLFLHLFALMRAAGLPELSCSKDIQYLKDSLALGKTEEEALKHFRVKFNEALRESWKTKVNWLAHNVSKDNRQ
Chain of PI3K delta (P27986 whole entry partner): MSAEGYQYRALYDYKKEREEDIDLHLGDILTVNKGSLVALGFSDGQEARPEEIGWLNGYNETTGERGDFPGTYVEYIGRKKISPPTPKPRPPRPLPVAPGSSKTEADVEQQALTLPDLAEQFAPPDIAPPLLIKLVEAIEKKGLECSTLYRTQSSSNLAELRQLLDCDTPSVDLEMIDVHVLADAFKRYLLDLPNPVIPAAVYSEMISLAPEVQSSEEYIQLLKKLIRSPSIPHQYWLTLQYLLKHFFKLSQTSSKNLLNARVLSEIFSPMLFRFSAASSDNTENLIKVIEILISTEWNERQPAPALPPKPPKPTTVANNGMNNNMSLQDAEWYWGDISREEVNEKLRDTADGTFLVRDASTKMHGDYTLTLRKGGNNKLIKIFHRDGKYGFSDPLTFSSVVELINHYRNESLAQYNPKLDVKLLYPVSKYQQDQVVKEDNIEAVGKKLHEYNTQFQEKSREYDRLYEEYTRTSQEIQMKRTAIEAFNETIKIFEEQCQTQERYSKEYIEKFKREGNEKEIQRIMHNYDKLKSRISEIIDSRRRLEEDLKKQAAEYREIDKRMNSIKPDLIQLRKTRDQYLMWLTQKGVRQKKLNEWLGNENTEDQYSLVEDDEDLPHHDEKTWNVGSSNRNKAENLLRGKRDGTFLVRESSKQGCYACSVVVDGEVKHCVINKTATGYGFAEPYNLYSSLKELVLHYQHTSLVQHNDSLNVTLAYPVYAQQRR

SMILES	IC50
CCn1c(C(=O)N2CC(F)(F)C2)nc2c(N3CCC4(CC3)C(=O)Nc3ccccc34)ncnc21 [Compound 216, 1′-{8-[(3,3-difluoroazetidin-1-yl)carbonyl]-9-ethyl-9H-purin-6-yl}spiro[indole-3,4′-piperidin]-2(1H)-one]	< 50 nM
CCn1c(C(=O)N2CCC(F)(F)C2)nc2c(N3CCC4(CC3)C(=O)Nc3ccccc34)ncnc21 [Compound 218, 1′-{8-[(3,3-difluoropyrrolidin-1-yl)carbonyl]-9-ethyl-9H-purin-6-yl}spiro[indole-3,4′-piperidin]-2(1H)-one]	< 50 nM
CCNC(=O)c1nc2c(N3CCC4(CC3)C(=O)Nc3ccccc34)ncnc2n1CC [Compound 219, N,9-diethyl-6-(2-oxo-1,2-dihydro-1′H-spiro[indole-3,4′-piperidin]-1′-yl)-9H-purine-8-carboxamide]	< 50 nM
CCCNC(=O)c1nc2c(N3CCC4(CC3)C(=O)Nc3ccccc34)ncnc2n1CC [Compound 220, 9-ethyl-6-(2-oxo-1,2-dihydro-1′H-spiro[indole-3,4′-piperidin]-1′-yl)-N-propyl-9H-purine-8-carboxamide]	< 50 nM
CCn1c(C(=O)NC2CCC2)nc2c(N3CCC4(CC3)C(=O)Nc3ccccc34)ncnc21 [Compound 221, N-cyclobutyl-9-ethyl-6-(2-oxo-1,2-dihydro-1′H-spiro[indole-3,4′-piperidin]-1′-yl)-9H-purine-8-carboxamide]	< 50 nM
CCn1c(C(=O)NCC(C)(C)O)nc2c(N3CCC4(CC3)C(=O)Nc3ccccc34)ncnc21 [Compound 224, 9-ethyl-N-(2-hydroxy-2-methylpropyl)-6-(2-oxo-1,2-dihydro-1′H-spiro[indole-3,4′-piperidin]-1′-yl)-9H-purine-8-carboxamide]	< 50 nM
CCn1c(C(=O)NCCC(C)C)nc2c(N3CCC4(CC3)C(=O)Nc3ccccc34)ncnc21 [Compound 225, 9-ethyl-N-(3-methylbutyl)-6-(2-oxo-1,2-dihydro-1′H-spiro[indole-3,4′-piperidin]-1′-yl)-9H-purine-8-carboxamide]	50 to 250 nM
CCCc1nnc(-c2nc3c(N4CCC5(CC4)C(=O)Nc4ccccc45)ncnc3n2CC)o1 [Compound 227, 1′-[9-ethyl-8-(5-propyl-1,3,4-oxadiazol-2-yl)-9H-purin-6-yl]spiro[indole-3,4′-piperidin]-2(1H)-one]	< 50 nM
Cn1c(C(=O)NCC2CC2)nc2c(N3CCC(n4c(=O)[nH]c5cc(Cl)ccc54)CC3)ncnc21 [Compound 228, 6-[4-(5-chloro-2-oxo-2,3-dihydro-1H-benzimidazol-1-yl)piperidin-1-yl]-N-(cyclopropylmethyl)-9-methyl-9H-purine-8-carboxamide]	500 to 1500 nM
CCCCc1nnc(-c2nc3c(N4CCC(n5c(=O)[nH]c6ccccc65)CC4)ncnc3n2C)o1 [Compound 232, 1-(1-[8-(5-butyl-1,3,4-oxadiazol-2-yl)-9-methyl-9H-purin-6-yl]piperidin-4-yl)-1,3-dihydro-2H-benzimidazol-2-one]	< 50 nM
CCc1nnc(-c2nc3c(N4CCC5(CC4)C(=O)Nc4ccccc45)ncnc3n2CC)o1 [Compound 236, 1′-[9-ethyl-8-(5-ethyl-1,3,4-oxadiazol-2-yl)-9H-purin-6-yl]spiro[indole-3,4′-piperidin]-2(1H)-one]	< 50 nM
CCn1cc(-c2nc3c(N4CCC5(CC4)C(=O)Nc4ccccc45)ncnc3n2C)cn1 [Compound 237, 1′-[8-(1-Ethyl-1H-pyrazol-4-yl)-9-methyl-9H-purin-6-yl]spiro[indole-3,4′-piperidin]-2(1H)-one]	< 50 nM
Cn1cc(-c2nc3c(N4CCC5(CC4)C(=O)Nc4ccccc45)ncnc3n2C)cn1 [Compound 239, 1′-[9-methyl-8-(1-methyl-1H-pyrazol-4-yl)-9H-purin-6-yl]spiro[indole-3,4′-piperidin]-2(1H)-one]	< 50 nM

Second part, the molecule after the results:

IC50	SMILES
< 50 nM	CCn1c(C(=O)NCC(C)(C)C)nc2c(N3CCC4(CC3)C(=O)Nc3ccccc34)ncnc21 [Compound 217, N-(2,2-dimethylpropyl)-9-ethyl-6-(2-oxo-1,2-dihydro-1′H-spiro[indole-3,4′-piperidin]-1′-yl)-9H-purine-8-carboxamide]
50 to 250 nM	CCn1c(C(=O)NCCCCO)nc2c(N3CCC4(CC3)C(=O)Nc3ccccc34)ncnc21 [Compound 222, 9-ethyl-N-(4-hydroxybutyl)-6-(2-oxo-1,2-dihydro-1′H-spiro[indole-3,4′-piperidin]-1′-yl)-9H-purine-8-carboxamide]
< 50 nM	CCn1c(C(=O)NC(C)C)nc2c(N3CCC4(CC3)C(=O)Nc3ccccc34)ncnc21 [Compound 223, 9-ethyl-N-(1-methylethyl)-6-(2-oxo-1,2-dihydro-1′H-spiro[indole-3,4′-piperidin]-1′-yl)-9H-purine-8-carboxamide]
< 50 nM	CCn1c(C(=O)NC2COC2)nc2c(N3CCC4(CC3)C(=O)Nc3ccccc34)ncnc21 [Compound 226, 9-ethyl-N-oxetan-3-yl-6-(2-oxo-1,2-dihydro-1′H-spiro[indole-3,4′-piperidin]-1′-yl)-9H-purine-8-carboxamide]
500 to 1500 nM	Cn1c(C(=O)NCC2CC2)nc2c(N3CCC(n4c(=O)[nH]c5ccc(Cl)cc54)CC3)ncnc21 [Compound 229, 6-[4-(6-chloro-2-oxo-2,3-dihydro-1H-benzimidazol-1-yl)piperidin-1-yl]-N-(cyclopropylmethyl)-9-methyl-9H-purine-8-carboxamide]
50 to 250 nM	Cn1c(C(=O)NCC2CC2)nc2c(N3CCC(n4c(=O)[nH]c5c(Cl)cccc54)CC3)ncnc21 [Compound 230, 6-[4-(4-chloro-2-oxo-2,3-dihydro-1H-benzimidazol-1-yl)piperidin-1-yl]-N-(cyclopropylmethyl)-9-methyl-9H-purine-8-carboxamide]
< 50 nM	Cn1c(-c2cnn(CC3CCC3)c2)nc2c(N3CCC(n4c(=O)[nH]c5ccccc54)CC3)ncnc21 [Compound 231]
50 to 250 nM	CC(C)CCn1cc(-c2nc3c(N4CCC(n5c(=O)[nH]c6ccccc65)CC4)ncnc3n2C)cn1 [Compound 233, 1-(1-{9-methyl-8-[1-(3-methylbutyl)-1H-pyrazol-4-yl]-9H-purin-6-yl}piperidin-4-yl)-1,3-dihydro-2H-benzimidazol-2-one]
< 50 nM	CCCn1cc(-c2nc3c(N4CCC5(CC4)C(=O)Nc4ccccc45)ncnc3n2C)cn1 [Compound 234, 1′-[9-methyl-8-(1-propyl-1H-pyrazol-4-yl)-9H-purin-6-yl]spiro[indole-3,4′-piperidin]-2(1H)-one]
500 to 1500 nM	Cn1c(C(=O)NCC2CC2)nc2c(N3CC[C@H](c4ccccc4)[C@@H](O)C3)ncnc21 [Compound 235, N-(cyclopropylmethyl)-6-[(3R,4R)-3-hydroxy-4-phenylpiperidin-1-yl]-9-methyl-9H-purine-8-carboxamide]
< 50 nM	Cn1c(-c2cn[nH]c2)nc2c(N3CCC4(CC3)C(=O)Nc3ccccc34)ncnc21 [Compound 238, 1′-[9-methyl-8-(1H-pyrazol-4-yl)-9H-purin-6-yl]spiro[indole-3,4′-piperidin]-2(1H)-one]
50 to 250 nM	Cn1c(C(=O)NCC2CC2)nc2c(N3CCC(n4c(=O)[nH]c5ncccc54)CC3)ncnc21 [Compound 240, N-(cyclopropylmethyl)-9-methyl-6-[4-(2-oxo-2,3-dihydro-1H-imidazo[4,5-b]pyridin-1-yl)piperidin-1-yl]-9H-purine-8-carboxamide]
